Five molecules from PMC10463376, “Design, synthesis, in vitro anticancer, molecular docking and SAR studies of new series of pyrrolo[2,3-d]pyrimidine derivatives” (BMC Chemistry, 2023) can be followed below.

SMILES strings stand for the structures. “Also recorded” adds a separate entry of the source.

What all share (format): cell-based, human
Assay [1] relates to P53. The experiment in a line: RT-qPCR P53 mRNA in A549. The note with it: A549, vs negative control. The procedure: (§1) All of the extractions were conducted on ice with ice-cold reagents. Total RNA from the different cell lines was isolated using Trizol (Invitrogen; Life Technologies, USA) according to the method of Sthoeger et al.. The 260:280 ratios were measured to determine RNA quality after the isolation method was completed according to the manufacturer’s instructions. A high-capacity cDNA reverse transcription kit was used to produce complementary DNA (cDNA) (Applied Biosystems, USA). […] The relative gene expression method (i.e., ΔΔCT) was used to analyze the real-time PCR data, as explained in Applied Biosystem User Bulletin No. 2. Each sample and gene were normalized using the β-actin gene.
(In general: Quantitative PCR measures a nucleic acid by following its amplification.)

The subject of assay [2] is BAX. The experiment in a line: RT-qPCR BAX mRNA in A549. The note with it: A549, vs negative control. The procedure: as §1
The subject of assay [3] is Bcl-2. The experiment in a line: RT-qPCR Bcl-2 mRNA in A549. Particulars: A549, vs negative control. The procedure: as §1
Assay [4] concerns Casp-3. The experiment in a line: RT-qPCR Casp-3 mRNA in A549. The method, then: as §1
Assay [5] concerns MCF7 cells. Briefly: Flow cytometric cell cycle analysis (PI), MCF7. The note with it: MCF7, 24 h, IC50 concentration; for cell cycle arrest (phase): vs untreated control; for percentage of cells in the G0/G1 phase: control 11.43%. The procedure: Herein, the negative control was the untreated MCF7 cells and Doxorubicin was used as a positive control. Firstly, after the treatment time of 24 h, MCF7 cells were centrifuged at 1000 rpm for 5 min at 4 °C. The supernatant was discarded and the cells pellet were washed in phosphate-buffered saline (PBS). Then, the cells pellet were centrifuged at 1000 rpm for another 5 min. Afterward, the cells were collected in a single-cell suspension and maintained in 70% ethanol overnight on ice. Then, cells were washed with 1 ml PBS. At last, 200 µl 1 × propidium iodide (PI) mixture was added to the cells pellet in the dark at room temperature for 30 min. Then, the DNA content was analyzed by subjecting the cells to an Epics XL-MCL flow cytometer (Beckman Coulter, Miami, FL). The distribution of cells at different phases of the cell cycle was determined by Multi-cycle software (Phoenix Flow Systems, San Diego, CA).

The test system of assay [6] is Paca2 cells. The experiment in a line: Annexin V-FITC/PI apoptosis flow cytometry, Paca2. Particulars: Paca2, 24 h, IC50. The method, then:
The percentage of apoptotic cells was detected by using Annexin V-FITC kit catalog number (#K101-25). About 2X10^6 of MCF7 and Paca2 cells were washed in 500 µl of 1 × PBS. Then, the cells were centrifuged and the supernatant was discarded. The cells pellet were re-suspended in the annexin V incubation reagent. The annexin V incubation reagent contained 10 μl binding buffer (10 ×), 10 μl propidium iodide, 1 μl annexin V-FITC, and 79 μl deionized water. The cells were incubated in 100 μl annexin V incubation reagent for 15 min in the dark at room temperature. Finally, the apoptotic cell percentage was detected by flow cytometry using the FITC signal detector (usually FL-1) and PI staining by the phycoerythrin emission signal detector (usually FL-2).
For orientation: A flow cytometer gives signals particle by particle.

In assay [7] the test system is pancreatic cell line (Paca2). The experiment in a line: DNA fragmentation assay, Paca2. Particulars: Paca2, IC50, 24 h, vs negative control (P < 0.01); 17 higher than Dox. The method, then: The DNA fragmentation assay in a pancreatic cell line (Paca2), breast cancer cell lines (MCF-7) and lung cell line (A549) was performed in concordance with the premises established by Yawata with some modifications. Briefly, after 24 h of exposure of Paca2, MCF-7 and A549 cancer cell lines to the prepared compounds in different Petri dishes (60 × 15 mm, Greiner), the cells were suspended and homogenized in 1 ml of medium and then centrifuged for 10 min at 900 rpm. The genomic DNA was extracted as shown in Yawata. About 1 × 10^6 cells of each tested cancer cell line were treated with the IC50 values of the tested compounds. All the cells were collected via trypsinization and washed with Dulbecco`s Phosphate Buffered Saline. Then, the cells were treated with the lysis buffer containing 5 mM ethylenediaminetetraacetic acid (EDTA), 10 mM Tris (pH 7.4), 0.5% Triton X-100 and 150 mM NaCl for 35 min on ice. […] Finally, the percentage of fragmented DNA was determined by performing gel electrophoresis using 2% agarose gel containing 0.1 μg/ml ethidium bromide.
Pancreatic cancer cell line (Paca2), breast cancer cell line (MCF-7) and lung cancer cell line (A549) were used to determine the percentage of DNA fragmentation after the treatment with IC50 of the tested compounds. […] The percentage of fragmented DNA was measured from the absorbance reading at 600 nm wavelength using the following formula: […]

For assay [8], the system named is BAX. Briefly: RT-qPCR BAX mRNA in Paca2. Particulars: 17 vs both Dox. and negative control. The method, then: as §1
Assay [9] relates to Bcl-2. Briefly: RT-qPCR Bcl-2 mRNA in Paca2. Particulars: 17 vs both Dox. and negative control. The method, then: as §1
For assay [10], the system named is CDK4. The experiment in a line: RT-qPCR CDK4 mRNA in Paca2. Particulars: 17 vs both Dox. and negative control. The procedure:
as §1

The test system of assay [11] is Casp-3. Briefly: RT-qPCR Casp-3 mRNA in Paca2. Particulars: 17 vs both Dox. and negative control. The method, then:
as §1

The test system of assay [12] is IL-8. The experiment in a line: RT-qPCR IL-8 mRNA in Paca2. The note with it: 17 vs both Dox. and negative control. The procedure: as §1
The test system of assay [13] is DR4. The experiment in a line: RT-qPCR DR4 mRNA in Paca2. Particulars: 17 vs both Dox. and negative control. The procedure:
as §1

Consider `COc1ccc(-c2c(Cl)n(-c3ccc(Cl)cc3Cl)c3ncnc(Cl)c23)cc1OC` [Compound 4b, 4,6-dichloro-7-(2,4-dichlorophenyl)-5-(3,4-dimethoxyphenyl)-7H-pyrrolo[2,3-d]pyrimidine], for which the “P53 mRNA level” value in assay [1] is recorded as “up-regulated”. Besides, in assay [2], the “BAX mRNA level” value was “up-regulated”. Moreover, the “Bcl-2 mRNA level” value in assay [3] was “down-regulated”. In assay [4], the “Casp-3 mRNA level” value is “up-regulated”.
Take `NNc1ncnc2c1c(-c1ccc(Br)cc1)c(Cl)n2-c1ccc(Cl)cc1Cl` [Compound 14a, 5-(4-bromophenyl)-6-chloro-7-(2,4-dichlorophenyl)-4-hydrazineyl-7H-pyrrolo[2,3-d]pyrimidine]: in assay [5], the “cell cycle arrest (phase)” value is “G1 and S phases; also recorded: G1/S phase”; the “percentage of cells in the G0/G1 phase” value was 68.60%.
`COc1ccc(-c2c(Cl)n(-c3ccc(Cl)cc3Cl)c3ncnc(NN)c23)cc1OC` [Compound 14b, 6-chloro-7-(2,4-dichlorophenyl)-5-(3,4-dimethoxyphenyl)-4-hydrazineyl-7H-pyrrolo[2,3-d]pyrimidine]: in assay [5], the “cell cycle arrest (phase)” value is “G1 and S phases; also recorded: G1/S phase”; the “percentage of cells in the G0/G1 phase” value worked out at 85.98%.
For `CN1CCN(c2nc(C(Cl)(Cl)Cl)nc3c2c(-c2ccc(Br)cc2)c(Cl)n3-c2ccc(Cl)cc2Cl)CC1` [Compound 17, 5-(4-bromophenyl)-6-chloro-7-(2,4-dichlorophenyl)-4-(4-methylpiperazin-1-yl)-2-(trichloromethyl)-7H-pyrrolo[2,3-d]pyrimidine], in assay [6] (control 0.54%), the “percentage of late apoptotic cells (Q1-UR)” value is reported as 0.86%. In addition, in assay [6] (control 2.27%), the “percentage of necrotic cells (Q1-UL)” value worked out at 6.17%. Also, the “percentage of early apoptotic cells (Q1-LR)” value in [6] (control 4.46%) is on record as 4.74%. For the same molecule, the DNA fragmentation rate result in assay [7] was “increased significantly”. In addition, the “BAX mRNA level” value in assay [8] was “up-regulated”. In assay [9], the “Bcl-2 mRNA level” value is “down-regulated”. In addition, the “CDK4 mRNA level” value in [10] is on record as “lowered”. The “Casp-3 mRNA level” value in assay [11] is “up-regulated”. Moreover, the “IL-8 mRNA level” value in [12] is recorded as “lowered”. For the same molecule, the “DR4 mRNA level” value in [13] is recorded as “up-regulated”.
In the case of `COc1cccc2c1C(=O)c1c(O)c3c(c(O)c1C2=O)C[C@@](O)(C(=O)CO)C[C@@H]3O[C@H]1C[C@H](N)[C@H](O)[C@H](C)O1` [Dox, Doxorubicin, reference compound], in assay [7], the DNA fragmentation rate entry is reported as “increased significantly”. The “BAX mRNA level” value in [8] is “no significant difference”; in assay [2] it was “up-regulated”. Further, the “Bcl-2 mRNA level” value in assay [9] is “no significant difference”; in [3], “down-regulated”. Also, the “CDK4 mRNA level” value in [10] was “no significant difference”. Besides, the figures for the “Casp-3 mRNA level” value in assay [11] and in assay [4] were “no significant difference” and “up-regulated”, respectively. In addition, the “IL-8 mRNA level” value in assay [12] is reported as “no significant difference”. Also, the “DR4 mRNA level” value in [13] was “no significant difference”. The “P53 mRNA level” value in assay [1] is given as “up-regulated”.
